The text below walks through data of patent publication US12611394B2, “Use of ginkgolide a in the treatment of autism” (CENTER FOR EXCELLENCE IN MOLECULAR CELL SCIENCE, CHINESE …, priority 2019, dated 2026).

Holding throughout (assay type): in vivo, mouse
In test [1] the test system is heterozygous mutant mice carrying NR2F1 gene point mutation. Put plainly: Elevated-plus maze experiment after administration of ginkgolide A. The note with it: mutant (+/m) mice, gavage 2 mg/kg once a day, 7-8 weeks after birth, tested at 8 weeks; FIG. 13. As for the experimental part: The related anxiety state of mice were investigated by using the characteristics that mice like to explore in the new environment and the contradictory behavior of fear of heights with open arms at heights. In order to increase the total number of mice entering the arm and avoid hiding in the closed arm, the animals were usually placed in an open environment for 5 minutes and then placed in the maze. Similarly, the mice were placed in a room with an elevated experimental device to adapt to the environment one hour before the start of the experiment, with the red light turned on, and the room temperature was kept at 25° C. At the beginning of the experiment, hold the mouse into the palm of the hand, place it in the middle of the cross facing the closed arm, and quickly leave this room. Then another person started recording and tracking the activity movement of the mouse in another room. In the process, the times of the experimental mouse entering the open arm and the closed arm was counted, and the time of staying in the open arm and the closed arm was counted respectively; after the whole process was recorded for 5 minutes for the experiment, the mice were gently stroked, and put back into the cage. The elevated-plus table was cleaned with 70% alcohol for the experiment of the next mouse. The elevated-plus experiment is mainly used to detect the anxiety behavior of mice. […]

Test [2] shares this test system. Put plainly: Self-grooming experiment after administration of ginkgolide A. The note with it: mutant (+/m) mice, gavage 2 mg/kg once a day, 7-8 weeks after birth, tested at 8 weeks; FIG. 12. As for the experimental part:
The experimental mice were placed in a feeding cage with the bottom covered with feed and the height was no more than 1 cm. The time of grooming behavior in mice in 10 minutes was recorded. The grooming position includes face, head, neck, ears, etc. Subsequent self-grooming experiments were conducted to detect repetitive stereotyped behaviors. […] Ginkgolide A was administered to heterozygous mutant mice. The detailed administration scheme was as follows: the administration method was gavage treatment, the concentration of ginkgolide A was 2 mg/kg, the administration time is 7-8 weeks after the birth of mutant mice, and the administration frequency was once a day.

Test [3] shares this test system. Put plainly: Three-box experiment (sociability and social novelty test) after administration of ginkgolide A. The note with it: mutant (+/m) mice, gavage 2 mg/kg once a day, 7-8 weeks after birth, tested at 8 weeks; FIG. 11. As for the experimental part:
a. Experimenter A entered the behavior room one hour before the experiment, took out a cage (four) of the experimental mice placed in the next room and placed them in the behavior room 1 hour. Meanwhile, the two mice needed in the experiment (note that the mice used here and the experimental mice cannot be in the same nest, and the sex should be the same) were placed in the behavior room 1 hour. Turn on the light to adapt it to the environment; b. Experimenter A started to clean the three boxes of equipment used in the experiment about half an hour before the experiment, sprayed the 30% alcohol on all parts of the three boxes, wiped gently with a white cloth, and then wiped dry with a new clean white cloth. Then two cages and two objects were washed. And the cloth used to block personnel and the experimental area was put up. c. At the same time, experimenter B began to debug the computer operating software: open the three-box experimental program and confirm whether the positions of the three boxes coincide with the position divided by the software. If not, please assist experimenter A in adjusting. […] After everything was ready, in the first round of the experiment, experimenter A put identical objects in areas 2 and 3, such as bottle caps. […] 5 min later, the experiment was ready to start. […] The experiment lasted 10 min, and the software recorded the time and distance of mice in each area. […]

Turning to `C[C@@H]1C(=O)O[C@H]2C[C@@]34[C@H]5C[C@@H](C(C)(C)C)[C@]36[C@@H](OC(=O)[C@@H]6O)O[C@@]4(C(=O)O5)[C@]21O` [ginkgolide A], in test [1], the “time to explore the open arm” value is listed as “increased significantly”. Also, the self-grooming time result in test [2] is “significantly reduced”. Moreover, in test [3], the “time of interaction with similar mice (sociability)” value was “significantly increased” and the “time of interaction with unfamiliar mice (social novelty)” value is listed as “significantly increased”.
